Patent US8293258B2, “Pesticide treatments made from hop extracts” (John I. Hass, Inc., priority 2000, dated 2012)

Columns and labels:
[1] = system: Erysiphe (=Uncinula) necator; assay: Grapevine powdery mildew control test (experimental vineyard); assay type: in vivo; conditions: standard control fungicide, concentration not given; percent of grape clusters that showed disease
Method: The grapevine powdery mildew organism is the fungus Erysiphe (=Uncinula) necator and the host plant is wine grape plant Vitis vinifera. Tests were conducted in an experimental vineyard near Pasco, Wash. Treatments were applied using an airblast sprayer at a volume of 100 gallons per acre. Disease inoculum was natural and had been the heaviest it has been in at least seven years. Plot size was five grape plants. Treatments were replicated four times and evaluations were made on September 4th. […] Percent severity is the portion of each grape cluster that was covered with symptoms.

[2] = system: predator mites Galendromus occidentalis and Neoseiulus fallacis; conditions: in vivo
Text: Final concentrations of each component of the tank mix are: one-half percent liquid soap, one percent crop oil and one percent beta acids.
This mixture was applied to hop plants using a Windmill 400 gallon airblast sprayer. The mixture was applied to a one-acre test plot at the rate of 20 gallons per acre and to another one-acre plot at the rate of 100 gallons per acre. A total of five applications were made during the growing season. The first was made June 9th and the final on August 1st. Counts of live spider mites were made periodically during the season to monitor the effect of the product on the number of live mites. Simultaneously, the beneficial predator mites Galendromus occidentalis and Neoseiulus fallacis were counted to determine the effect of the product on these predator mites since these predator mites are useful in helping to reduce the numbers of twospotted spider mites.

Compound	Percent Incidence [1] [%]	predator numbers [2]	predator numbers, highest reached [2] [per leaf]
OC(c1ccc(Cl)cc1)(c1cncnc1)c1ccccc1Cl (stereo not drawn) [Standard Control, Fenarimol]	71		
Beta Acids		quite high	≤ 12
